The values below come from paper PMC7297817, “Pharmacological Characterization of a Betaine/GABA Transporter 1 (BGT1) Inhibitor Displaying an Unusual Biphasic Inhibition Profile and Anti-seizure Effects” (Neurochemical Research, 2020).

Like-named read-outs stand apart in the source and are kept apart here.

The target of one test is T1, hGAT3 L314Q (Homo sapiens, UniProt P48066, L314Q).
T1 construct: expressed in transfected cells; host or cells: tsA201 (transient)
As to the kind of experiment: [3H]GABA uptake at hGAT3 L314Q mutant transiently expressed in tsA201 cells. It is filed as cell-based. The note with it: 30 nM [3H]GABA, 3 min. The procedure: (§1) The HEK-293 and Flp-In CHO cell lines stably expressing mouse (m) and human (h) GATs, respectively, have been described previously and were cultured accordingly. The tsA201 cell line was used for transient expression while the MDCK II cell line express BGT1 endogenously. Both cell lines were cultured as described. tsA201 cells were transfected with DNA constructs (8 μg per 10 cm dish if not otherwise mentioned) using 40 μL PolyFect transfection reagent according to the manufacturer’s protocol (Qiagen, Venlo, Netherlands). The DNA constructs encoding hBGT1, hGAT1-3 [36], the mutated constructs hBGT1 Q299 and hGAT3 L314Q described previously, and hBGT Y453A were synthesized and sequence validated by Genscript (NJ, USA).
(§2) The [^3H]GABA competition uptake assay was performed as previously described. A minor change, however, was introduced for uptake in MDCK II cells, in which 100 nM [^3H]GABA was used for a 15 min incubation period at 37 °C instead of 30 nM [^3H]GABA and 3 min incubation. Studies related to the inhibition curves with GABA and BPDBA at hBGT1 were obtained both with and without the presence of 10 μM ATP during the [^3H]GABA uptake assay.
The [^3H]GABA uptake data was normalized to the percentage of total uptake in the individual experiments in the presence of the lowest compound concentration or no compound present. […]

The target in another test is T2, Beta1 (Homo sapiens, UniProt P08588).
T2 construct: purchased NIMH Psychoactive Drug Screening Program (PDSP)
T2 sequence (P08588 whole entry): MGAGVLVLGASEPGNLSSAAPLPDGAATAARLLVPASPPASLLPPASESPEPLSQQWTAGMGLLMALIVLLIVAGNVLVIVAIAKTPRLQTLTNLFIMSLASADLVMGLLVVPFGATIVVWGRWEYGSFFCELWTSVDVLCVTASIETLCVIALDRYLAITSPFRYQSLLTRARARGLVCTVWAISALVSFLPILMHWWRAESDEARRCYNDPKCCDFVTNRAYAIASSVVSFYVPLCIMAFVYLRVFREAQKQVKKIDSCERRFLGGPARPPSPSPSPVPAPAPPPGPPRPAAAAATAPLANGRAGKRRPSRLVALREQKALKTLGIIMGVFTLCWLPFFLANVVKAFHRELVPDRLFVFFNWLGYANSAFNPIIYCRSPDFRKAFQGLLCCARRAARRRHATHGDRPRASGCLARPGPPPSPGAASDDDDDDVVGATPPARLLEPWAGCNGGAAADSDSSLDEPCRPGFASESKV
Description: NIMH PDSP radioligand binding, Beta1. Particulars: radioligand [125I]pindolol, n=4.

The target in a further test is T3, mBGT1 (Mus musculus, UniProt P31651).
T3 construct: expressed in transfected cells
T3 sequence (P31651 1-614): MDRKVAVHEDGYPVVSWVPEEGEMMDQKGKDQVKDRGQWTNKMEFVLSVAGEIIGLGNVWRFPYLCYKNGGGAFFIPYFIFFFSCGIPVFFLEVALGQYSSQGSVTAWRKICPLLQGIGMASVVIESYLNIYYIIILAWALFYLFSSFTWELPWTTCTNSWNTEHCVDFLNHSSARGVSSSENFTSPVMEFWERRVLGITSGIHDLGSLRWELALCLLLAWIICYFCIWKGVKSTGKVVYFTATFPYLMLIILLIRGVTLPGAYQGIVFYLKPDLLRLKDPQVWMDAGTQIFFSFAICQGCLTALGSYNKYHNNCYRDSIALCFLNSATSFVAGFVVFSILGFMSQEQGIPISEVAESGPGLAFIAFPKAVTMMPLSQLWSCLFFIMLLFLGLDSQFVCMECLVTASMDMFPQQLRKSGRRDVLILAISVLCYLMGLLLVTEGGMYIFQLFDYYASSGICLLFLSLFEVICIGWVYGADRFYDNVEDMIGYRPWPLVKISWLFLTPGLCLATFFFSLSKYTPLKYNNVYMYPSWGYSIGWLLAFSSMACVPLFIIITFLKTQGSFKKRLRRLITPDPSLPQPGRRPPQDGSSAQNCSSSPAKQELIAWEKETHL
Description: [3H]GABA uptake at mBGT1 stably expressed in HEK-293 cells. It counts as cell-based. Here is the method:
as §1, §2
(§3) The [^3H]GABA uptake data was normalized to the percentage of total uptake in the individual experiments in the presence of the lowest compound concentration or no compound present. Data presented is the pooled data of at least three independent experiments with three technical replicates. Concentration–response curves (CRCs) were fitted with GraphPad Prism (version 8.2.1, Yosemite, GraphPad Software, San Diego, CA, USA) by non-linear regression to the sigmoidal concentration response model: Y=Bottom+(Top-Bottom)/1+10^LogIC50-X∗nH where Top is the Top plateau, Bottom is the Bottom plateau, X is the logarithm of the concentration of the compound, LogIC50 is the concentration giving a response halfway between Top and Bottom,and nH is the Hill slope.
(§4) The best fit for CRCs obtained with the [^3H]GABA uptake assay was identified by the extra-sum-of-squares F test (for convenience referred to as F test).

The target of a further test is T4, Alpha2A (Homo sapiens, UniProt P08913).
T4 construct: purchased NIMH Psychoactive Drug Screening Program (PDSP)
T4 sequence (P08913 whole entry): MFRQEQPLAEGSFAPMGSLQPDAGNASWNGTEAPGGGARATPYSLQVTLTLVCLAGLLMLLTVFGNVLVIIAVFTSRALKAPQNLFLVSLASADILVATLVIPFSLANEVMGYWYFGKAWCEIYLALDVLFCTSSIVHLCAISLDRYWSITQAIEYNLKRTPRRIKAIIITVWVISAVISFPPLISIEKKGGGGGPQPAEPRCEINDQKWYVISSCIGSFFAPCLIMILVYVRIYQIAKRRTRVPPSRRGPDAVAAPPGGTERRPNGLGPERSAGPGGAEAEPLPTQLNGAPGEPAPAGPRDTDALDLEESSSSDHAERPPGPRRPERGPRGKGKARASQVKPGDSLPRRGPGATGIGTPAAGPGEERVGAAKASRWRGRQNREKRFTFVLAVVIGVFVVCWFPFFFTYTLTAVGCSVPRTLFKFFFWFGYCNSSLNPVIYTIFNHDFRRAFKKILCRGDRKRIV
Description: NIMH PDSP radioligand binding, Alpha2A. Particulars: radioligand [3H]rauwolscine, n=4.

The subject of test [1] is tsA201 cells transiently expressing hBGT1. Description: Fluo-4 Ca2+-assay in tsA201 cells transiently expressing hBGT1. Particulars: within the 3 min timeframe; blocked by BAPTA/AM. It is filed as cell-based, human. Here is the method:
Emission was recorded for 20 s. before adding the compounds (at 4 × concentrations) to the HBSS-HEPES buffer to determine the baseline. […] Data presented is the pooled data of at least three independent experiments with three technical replicates. Changes in fluorescence units (ΔFU) were determined as the maximum fluorescent signal within the 190 s minus the average of the baseline.

Another test addresses T5, 5-HT1E (Homo sapiens, UniProt P28566).
T5 construct: purchased NIMH Psychoactive Drug Screening Program (PDSP)
Description: NIMH PDSP radioligand binding, 5-HT1E. The note with it: radioligand [3H]5-HT, n=4.

Another test concerns the target T6, 5-HT2A (Homo sapiens, UniProt P28223).
T6 construct: purchased NIMH Psychoactive Drug Screening Program (PDSP)
Description: NIMH PDSP radioligand binding, 5-HT2A. Particulars: radioligand [3H]ketanserin, n=4.

The next test has as its target T7, 5-HT7 (Homo sapiens, UniProt P34969).
T7 construct: purchased NIMH Psychoactive Drug Screening Program (PDSP)
As to the kind of experiment: NIMH PDSP radioligand binding, 5-HT7. The note with it: radioligand [3H]LSD, n=4.

Another test has as its target T8, canine BGT1 (Canis lupus familiaris, UniProt P27799).
T8 construct: the MDCK II cell line express BGT1 endogenously; endogenous in cells; host or cells: MDCK II
T8 sequence (P27799 1-614): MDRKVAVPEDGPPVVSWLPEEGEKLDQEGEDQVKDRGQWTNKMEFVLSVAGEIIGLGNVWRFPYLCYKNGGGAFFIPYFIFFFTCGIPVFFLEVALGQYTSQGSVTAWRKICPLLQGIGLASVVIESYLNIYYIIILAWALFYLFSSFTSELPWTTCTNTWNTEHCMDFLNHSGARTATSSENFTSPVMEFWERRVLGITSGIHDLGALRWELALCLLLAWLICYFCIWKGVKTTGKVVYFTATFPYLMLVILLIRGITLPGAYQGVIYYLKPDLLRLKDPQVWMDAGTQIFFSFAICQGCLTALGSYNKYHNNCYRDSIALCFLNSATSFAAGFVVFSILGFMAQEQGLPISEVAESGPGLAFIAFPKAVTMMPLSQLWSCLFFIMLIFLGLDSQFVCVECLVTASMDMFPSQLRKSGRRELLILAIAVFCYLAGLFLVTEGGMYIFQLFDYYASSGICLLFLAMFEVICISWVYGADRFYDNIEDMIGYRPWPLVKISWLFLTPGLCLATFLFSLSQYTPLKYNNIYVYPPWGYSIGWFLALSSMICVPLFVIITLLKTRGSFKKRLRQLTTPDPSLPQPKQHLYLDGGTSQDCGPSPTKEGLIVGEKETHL
As to the kind of experiment: [3H]GABA uptake at canine BGT1 endogenously expressed in MDCK II cells. It counts as cell-based. Here is the method:
as §1, §2, §3, §4

T7 sequence (P34969 whole entry): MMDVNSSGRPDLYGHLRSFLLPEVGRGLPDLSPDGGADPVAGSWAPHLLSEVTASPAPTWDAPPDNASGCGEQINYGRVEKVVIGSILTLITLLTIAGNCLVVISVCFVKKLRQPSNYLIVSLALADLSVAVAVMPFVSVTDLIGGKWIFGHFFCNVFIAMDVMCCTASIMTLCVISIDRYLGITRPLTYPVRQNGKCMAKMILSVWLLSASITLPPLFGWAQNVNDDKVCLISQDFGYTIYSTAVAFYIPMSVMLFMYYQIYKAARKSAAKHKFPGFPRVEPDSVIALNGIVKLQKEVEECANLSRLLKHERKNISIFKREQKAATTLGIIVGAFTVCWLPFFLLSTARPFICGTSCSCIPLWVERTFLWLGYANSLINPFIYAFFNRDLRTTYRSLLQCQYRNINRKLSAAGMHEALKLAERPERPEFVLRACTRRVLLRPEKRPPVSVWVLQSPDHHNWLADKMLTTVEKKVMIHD
T5 sequence (P28566 whole entry): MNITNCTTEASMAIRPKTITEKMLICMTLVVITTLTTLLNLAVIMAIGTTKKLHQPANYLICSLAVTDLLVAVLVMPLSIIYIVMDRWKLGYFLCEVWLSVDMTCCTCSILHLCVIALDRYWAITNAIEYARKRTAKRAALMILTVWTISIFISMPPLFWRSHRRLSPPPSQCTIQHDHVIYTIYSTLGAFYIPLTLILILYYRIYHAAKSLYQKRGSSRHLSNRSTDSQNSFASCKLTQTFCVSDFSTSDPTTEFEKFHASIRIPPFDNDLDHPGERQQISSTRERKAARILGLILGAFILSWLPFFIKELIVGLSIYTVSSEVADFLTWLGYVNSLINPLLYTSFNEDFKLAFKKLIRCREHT
T6 sequence (P28223 whole entry): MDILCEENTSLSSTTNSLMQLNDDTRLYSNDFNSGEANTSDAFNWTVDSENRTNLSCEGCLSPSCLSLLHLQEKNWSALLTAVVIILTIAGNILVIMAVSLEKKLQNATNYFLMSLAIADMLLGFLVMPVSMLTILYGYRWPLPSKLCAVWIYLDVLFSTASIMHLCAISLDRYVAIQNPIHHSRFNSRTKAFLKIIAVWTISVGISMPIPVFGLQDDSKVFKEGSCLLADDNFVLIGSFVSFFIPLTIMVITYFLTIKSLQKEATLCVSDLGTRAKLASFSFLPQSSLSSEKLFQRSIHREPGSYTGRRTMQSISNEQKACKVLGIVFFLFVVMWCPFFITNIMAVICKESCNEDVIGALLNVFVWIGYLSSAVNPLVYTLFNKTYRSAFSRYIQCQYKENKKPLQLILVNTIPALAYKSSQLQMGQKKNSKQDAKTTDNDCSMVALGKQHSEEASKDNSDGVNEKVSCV
T1 sequence (P48066 whole entry L314Q): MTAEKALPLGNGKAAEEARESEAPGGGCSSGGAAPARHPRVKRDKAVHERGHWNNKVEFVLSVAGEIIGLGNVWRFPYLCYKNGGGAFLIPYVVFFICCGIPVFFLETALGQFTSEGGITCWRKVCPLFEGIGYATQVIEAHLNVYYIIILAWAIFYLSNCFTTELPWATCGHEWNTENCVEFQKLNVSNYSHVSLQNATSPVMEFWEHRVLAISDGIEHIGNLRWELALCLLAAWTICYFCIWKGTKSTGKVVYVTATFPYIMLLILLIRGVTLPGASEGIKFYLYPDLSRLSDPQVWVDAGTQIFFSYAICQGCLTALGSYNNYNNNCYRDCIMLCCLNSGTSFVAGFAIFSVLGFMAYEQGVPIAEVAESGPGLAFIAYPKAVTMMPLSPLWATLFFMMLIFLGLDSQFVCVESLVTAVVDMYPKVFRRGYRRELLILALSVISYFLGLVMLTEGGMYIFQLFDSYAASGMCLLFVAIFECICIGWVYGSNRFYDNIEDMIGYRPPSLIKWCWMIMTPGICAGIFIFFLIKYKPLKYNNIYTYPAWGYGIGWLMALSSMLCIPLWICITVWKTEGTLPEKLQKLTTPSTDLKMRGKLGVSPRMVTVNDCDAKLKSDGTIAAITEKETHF

As a reminder, the inhibition is the change of the read-out against control, counted positive when it falls. Usually IC50 stands for the point on the concentration scale where inhibition reaches its midpoint. As to `Cc1ccsc1C(=CCCN(C)[C@H]1CCCC[C@H]1C(=O)O)c1sccc1C` [SBV2-114, (1R,2S)-2-((4,4-bis(3-methylthiophen-2-yl)but-3-en-yl)(methyl)amino)cyclohexanecarboxylic acid], the “inhibition profile and activity at hGAT3 L314Q” value against hGAT3 L314Q is “activity in hGAT3 L314Q similar to hBGT1”. The inhibition at 10 µM is 37.9% at Beta1; 42.8% on Alpha2A; -12.9% at 5-HT1E; 20% at 5-HT2A; 14.1% at 5-HT7. For the same compound, the IC50 at mBGT1 was 3.8 µM; at mBGT1 (read-out: IC50, low affinity component (high IC50), biphasic fit, 30 nM [3H]GABA, 3 min, HEK-293), 408 µM; at canine BGT1 (IC50, high affinity component, biphasic fit, 100 nM [3H]GABA, 15 min) it was 0.1 µM; against canine BGT1 (pIC50 ± S.E.M., high affinity component, biphasic fit, 100 nM [3H]GABA, 15 min), 0.105 µM; at canine BGT1 (read-out: IC50, low affinity component, biphasic fit, 100 nM [3H]GABA, 15 min), 251 µM. The “% inhibition (Frac value) at the low IC50” value on mBGT1 (biphasic fit) stood at 45%. At mBGT1 (preferred model, extra-sum-of-squares F test, N=5), the Fit entry is “Biphasic”. In test [1], the “intracellular Ca2+ increase” value is “triggered an intracellular Ca^2+ increase at 200 μM and 500 μM”. Also, the Frac on canine BGT1 came to 0.38.
